Measurements taken from patent publication US20160272713A1, “Fibrosis Inhibiting Compounds and Methods of Use Thereof in the Prevention or Treatment of Fibrosing Diseases” (priority 2013, published 2016).

How the values were obtained:
C57/BL6 mice = assay: bleomycin-induced pulmonary fibrosis in mice; format: in vivo
Method: To determine the effects of compound 1 in treatment of a fibrosing disease, pulmonary fibrosis was selected as a model. Pulmonary fibrosis was induced in C57/BL6 mice by oropharyngeal aspiration of bleomycin into their lungs. 24 hour after bleomycin administration, mice received daily intraperitoneal injections of compound 1. At day 21 mice were euthanized and the bronchoalveolar lavage fluid (BAL) and the lungs were harvested.
The successful aspiration of bleomycin into the lungs was confirmed by listening for the crackling noise heard after the aspiration. Starting 24 hours following bleomycin aspiration (day 1), mice were treated daily with intraperitoneal injections of 50 microliters of PBS containing 2 microliters of 1 mg/ml of compound 1 (ChemBridge Corporation, San Diego, Calif.) (0.1 mg/kg) dissolved in DMSO (SigmaAldrich), 2 microliters of 0.1 mg/ml of compound 1 (0.01 mg/kg) dissolved in DMSO, 2 microliters of 0.01 mg/ml of compound 1 (0.001 mg/kg) dissolved in DMSO, or an equal volume of PBS containing 2 microliters of DMSO. All animals were used in accordance with rules published by the National Institutes of Health and with a protocol approved by the Texas A&M University Institutional Animal Care and Use Committee. Mice were weighed daily, and euthanized using CO2 following NIH guidelines at day 21 after bleomycin aspiration. No injections were done on day 21. […] The BAL cells from the first BAL collection were collected by centrifugation at 500×g for 10 minutes, and the supernatants were transferred to Eppendorf tubes. The supernatants were flash frozen with liquid nitrogen, and stored at −20° C. until further use. The BAL pellets were resuspended in the secondary and tertiary BAL fluid and the combined cells were collected by centrifugation at 500×g for 5 minutes. The cells were resuspended in 500 microliters of 4% (w/v) BSA-PBS and counted with a hemocytometer. 100 microliters of diluted cells were then aliquoted into cytospin funnels and were then spun onto glass slides (Superfrost plus white slides, VWR) at 400×g for 5 minutes using a cytospin centrifuge (Shandon, Cheshire, England). These cells were then air-dried, and stained for CD11b (Biolegend) or CD11c (MBL International, Woburn, Mass.) as described below.
After collection of BAL fluid, mouse lungs were inflated with prewarmed OCT (VWR, Radnor, Pa.) and then embedded in OCT, frozen on dry ice, and then stored at −80° C. 6-micron cryosections of mouse lung were mounted on Superfrost Plus microscope slides (VWR). Sections were fixed in acetone for 20 min at room temperature. […] After washing, the biotinylated antibodies were detected by streptavidin-alkaline phosphatase (Vector Laboratories) following the manufacturer's protocol. […]

[1] = tested on: fibrocyte formation from human PBMCs; assay: fibrocyte formation (differentiation) assay with PBMCs in serum-free medium; format: cell-based; conditions: for IC50: PBMC, read-out: IC50 of inhibition of fibrocyte formation; for effect on fibrocyte formation / differentiation (in words): counts normalized to control; for concentration at which fibrocyte formation was significantly inhibited: p<0.05 (t-test)
Excerpt: (§1) Human blood was collected into heparin tubes (BD Bioscience, San Jose, Calif.) from adult volunteers who gave written consent and with specific approval from the Texas A&M University human subjects Institutional Review Board. PBMCs were then isolated as previously described in Pilling, D. et al., Improved serum-free culture conditions for differentiation of human and murine fibrocytes, Journal of Immunology Methods 351:62-70 (2009), incorporated in material part by reference herein. Alamar Blue (Life Technologies, Grand Island, N.Y.) was used to assess cell viability following the manufacturer's protocol. Fibrocyte differentiation assays in the presence of different compounds were performed in serum-free medium as described in Pilling, D. et al., Improved serum-free culture conditions for differentiation of human and murine fibrocytes, Journal of Immunology Methods 351:62-70 (2009) which is incorporated in material part by reference herein. Macrophage polarization assays to detect formation of proinflammatory macrophages with an M1 phenotype were carried out in serum-free medium, in which case monocytes were left to differentiate to macrophages for 5 days and then the medium was replaced with fresh medium containing 3 microgram/ml of the tested protein.

macrophages = assay: macrophage polarization assay (M1 marker ICAM-1, M2 marker CD163); format: cell-based, human; conditions: 3 microgram/ml protein
Excerpt: as §1
Macrophage staining with anti-CD163 and anti-ICAM-1 antibodies was carried out as described in Pilling, D. et al., Identification of markers that distinguish monocyte-derived fibrocytes from monocytes, macrophages, and fibroblasts, PloS one 10:e7475 (2009) which is incorporated in material part by reference herein. Both primary antibodies were used at a concentration of 5 microgram/ml.

[2] = 0.1, 0.01 and 0.001 mg/kg daily intraperitoneal, day 21

| Molecule | IC50 [1] | effect on fibrocyte formation / differentiation (in words) [1] | expression of the M1 marker ICAM-1 (macrophages) | expression of the M2 marker CD163 (macrophages) | also measured |
| --- | --- | --- | --- | --- | --- |
| CCC(=O)Nc1nc(C)c(-c2csc(Nc3ccc(N(C)C)cc3)n2)s1 [Compound 1] | 0.0031 nM | – | – | – | CD11b positive inflammatory macrophages in the BAL vs bleomycin control (C57/BL6 mice; [2]): significantly decreased; collagen in the lungs (picrosirius red) vs bleomycin alone (C57/BL6 mice; [2]): significantly less collagen in the lungs; number of CD11b positive inflammatory macrophages in the lung sections (C57/BL6 mice; 0.1 and 0.01 mg/kg daily intraperitoneal, day 21, after BAL): significantly decreased; CD11c positive macrophages in the BAL (C57/BL6 mice; daily intraperitoneal injections, day 21): not altered significantly |
| CCCOC(=O)c1ccc(-c2ccc(C=C3C(=O)N(c4ccc(S(N)(=O)=O)cc4)N=C3C(F)(F)F)o2)cc1 [Compound 2] | 0.33 nM | – | – | – | – |
| COC(=O)c1ccc(-c2ccc(C=C3C(=O)N(c4ccc(S(N)(=O)=O)cc4)N=C3C(F)(F)F)o2)cc1 [Compound 3] | 2.2 nM | significantly inhibited fibrocyte formation at all tested concentrations | – | – | – |
| SAP NA: enzymatically (neuraminidase) desialylated SAP lacking the terminal sialic acids | – | reduced inhibitory effect on fibrocyte differentiation | increased the expression of the M1 marker ICAM-1 | did not | – |
| SAP: Serum amyloid P, 125 kDa pentameric pentraxin protein | – | – | did not cause such an increase | increased the expression of the M2 marker CD 163 | concentration at which fibrocyte formation was significantly inhibited [1]: ≥ 0.25 microgram/ml |
| CRP A32N: CRP glycosylated by mutating its 32nd amino acid from alanine to asparagine (protein, UniProt P02741 19-224, looked up, variant A32N) C-reactive protein: QTDMSRKAFVFPKESDTSYVSLKAPLTKPLKNFTVCLHFYTELSSTRGYSIFSYATKRQDNEILIFWSKDIGYSFTVGGSEILFEVPEVTVAPVHICTSWESASGIVEFWVDGKPRVRKSLKKGYTVGAEASIILGQEQDSFGGNFEGSQSLVGDIGNVNMWDFVLSPDEINTIYLGGPFSPNVLNWRALKYEVQGEVFTKPQLWP | – | able to inhibit fibrocyte formation, although not as well as SAP | did not cause such an increase | increased the expression of the M2 marker CD 163 | concentration at which fibrocyte formation was significantly inhibited [1]: ≥ 1 microgram/ml |
| CRP: C-reactive protein, 51% sequence identity with SAP (protein, UniProt P02741 19-224, looked up) C-reactive protein: QTDMSRKAFVFPKESDTSYVSLKAPLTKPLKAFTVCLHFYTELSSTRGYSIFSYATKRQDNEILIFWSKDIGYSFTVGGSEILFEVPEVTVAPVHICTSWESASGIVEFWVDGKPRVRKSLKKGYTVGAEASIILGQEQDSFGGNFEGSQSLVGDIGNVNMWDFVLSPDEINTIYLGGPFSPNVLNWRALKYEVQGEVFTKPQLWP | – | – | increased the expression of the M1 marker ICAM-1 | did not | – |
